# Data as given in patent publication US20250101041A1, “POSITIVE ALLOSTERIC MODULATORS OF THE MUSCARINIC ACETYLCHOLINE RECEPTOR M4” (Vanderbilt University, priority 2022, published 2025).
# Molecular target: T1, human mAChR M4 (Homo sapiens, UniProt P08173)
# T1 construct: expressed in transfected cells; host or cells: CHO-K1 (American Type Culture Collection), stably expressing hM4 and Gqi5
# T1 sequence (P08173 1-479): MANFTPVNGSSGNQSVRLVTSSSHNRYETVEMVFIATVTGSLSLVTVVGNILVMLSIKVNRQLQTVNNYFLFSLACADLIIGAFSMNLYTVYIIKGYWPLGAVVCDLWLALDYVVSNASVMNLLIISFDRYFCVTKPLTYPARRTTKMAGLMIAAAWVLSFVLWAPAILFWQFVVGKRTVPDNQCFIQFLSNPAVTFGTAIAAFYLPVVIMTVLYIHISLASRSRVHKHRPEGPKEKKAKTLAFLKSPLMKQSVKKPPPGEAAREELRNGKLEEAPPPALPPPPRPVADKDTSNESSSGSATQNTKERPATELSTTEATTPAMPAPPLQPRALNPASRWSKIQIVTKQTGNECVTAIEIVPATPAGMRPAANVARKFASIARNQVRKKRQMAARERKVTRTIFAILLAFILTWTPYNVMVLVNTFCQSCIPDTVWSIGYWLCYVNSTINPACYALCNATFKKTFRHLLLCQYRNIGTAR
# Assay: mAChR M4 cell-based functional assay: calcium mobilization (Fluo-4, FDSS), potentiation of EC20 acetylcholine response in hM4-Gqi5 CHO-K1 cells
# Settings: human M4; for Emax at 30 µM: CHO-K1, % ACh maximum at 30 μM; for EC50: potentiation of EC20 acetylcholine response, calcium mobilization
# In short: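 Readout is the fluorescence-ratio rise at 1 Hz on FDSS, with PAM activity taken as concentration-dependent enhancement of the EC20 acetylcholine response, fitted four-parameter for EC50/Emax. hM4-Gqi5 CHO-K1 cells carried Fluo-4 AM dye; test compounds (11 points, 1:3) preceded EC20 acetylcholine additions at 144 s and 230 s.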
Emax at 30 µM,EC50,SMILES
83%,722 nM,"Cc1cc(=O)n2nc(N3CCc4ncc(-c5ccc(N(C)C)nc5)cc4C3)c(C)c(C)c2n1 [Compound 1-121, 7-(3-(6-(dimethylamino)pyridin-3-yl)-7,8-dihydro-1,6-naphthyridin-6(5H)-yl)-2,8,9-trimethyl-4H-pyrimido[1,2-b]pyridazin-4-one]"
93%,2930 nM,"Cc1cc(=O)n2nc(N3CCc4ncc(-c5cccnc5C)cc4C3)c(C)c(C)c2n1 [Compound 1-122, 2,8,9-trimethyl-7-(3-(2-methylpyridin-3-yl)-7,8-dihydro-1,6-naphthyridin-6(5H)-yl)-4H-pyrimido[1,2-b]pyridazin-4-one]"
89%,858 nM,"Cc1cc(=O)n2nc(N3CCc4ncc(-c5cncc(Cl)c5)cc4C3)c(C)c(C)c2n1 [Compound 1-123, 7-(3-(5-chloropyridin-3-yl)-7,8-dihydro-1,6-naphthyridin-6(5H)-yl)-2,8,9-trimethyl-4H-pyrimido[1,2-b]pyridazin-4-one]"
97%,368 nM,"Cc1cc(=O)n2nc(N3CCc4ncc(-c5cnccn5)cc4C3)c(C)c(C)c2n1 [Compound 1-125, 2,8,9-trimethyl-7-(3-(pyrazin-2-yl)-7,8-dihydro-1,6-naphthyridin-6(5H)-yl)-4H-pyrimido[1,2-b]pyridazin-4-one]"
86%,1240 nM,"Cc1cncc(-c2cnc3c(c2)CN(c2nn4c(=O)cc(C)nc4c(C)c2C)CC3)c1 [Compound 1-127, 2,8,9-trimethyl-7-(3-(5-methylpyridin-3-yl)-7,8-dihydro-1,6-naphthyridin-6(5H)-yl)-4H-pyrimido[1,2-b]pyridazin-4-one]"
80%,768 nM,"Cc1cc(=O)n2nc(N3CCc4ncc(-c5ccc(C6CC6)nc5)cc4C3)c(C)c(C)c2n1 [Compound 1-128, 7-(3-(6-cyclopropylpyridin-3-yl)-7,8-dihydro-1,6-naphthyridin-6(5H)-yl)-2,8,9-trimethyl-4H-pyrimido[1,2-b]pyridazin-4-one]"
91%,1620 nM,"Cc1cc(=O)n2nc(N3CCc4ncc(-c5cccnc5)cc4C3)c(C)c(C)c2n1 [Compound 1-129, 2,8,9-trimethyl-7-(3-(pyridin-3-yl)-7,8-dihydro-1,6-naphthyridin-6(5H)-yl)-4H-pyrimido[1,2-b]pyridazin-4-one]"
84%,8090 nM,"Cc1cc(=O)n2nc(N3CCc4ncc(-c5ccc(C(F)(F)F)nc5)cc4C3)c(C)c(C)c2n1 [Compound 1-130, 2,8,9-trimethyl-7-(3-(6-(trifluoromethyl)pyridin-3-yl)-7,8-dihydro-1,6-naphthyridin-6(5H)-yl)-4H-pyrimido[1,2-b]pyridazin-4-one]"
92%,798 nM,"Cc1cc(=O)n2nc(N3CCc4ncc(-c5ccnnc5)cc4C3)c(C)c(C)c2n1 [Compound 1-132, 2,8,9-trimethyl-7-(3-(pyridazin-4-yl)-7,8-dihydro-1,6-naphthyridin-6(5H)-yl)-4H-pyrimido[1,2-b]pyridazin-4-one]"
79%,556 nM,"Cc1cc(=O)n2nc(N3CCc4ncc(-c5ccc6nccn6c5)cc4C3)c(C)c(C)c2n1 [Compound 1-133, 7-(3-(imidazo[1,2-a]pyridin-6-yl)-7,8-dihydro-1,6-naphthyridin-6(5H)-yl)-2,8,9-trimethyl-4H-pyrimido[1,2-b]pyridazin-4-one]"
88%,700 nM,"Cc1cc(=O)n2nc(N3CCc4ncc(-c5cncc(F)c5)cc4C3)c(C)c(C)c2n1 [Compound 1-134, 7-(3-(5-fluoropyridin-3-yl)-7,8-dihydro-1,6-naphthyridin-6(5H)-yl)-2,8,9-trimethyl-4H-pyrimido[1,2-b]pyridazin-4-one]"
97%,626 nM,"Cc1ccc(-c2cnc3c(c2)CN(c2nn4c(=O)cc(C)nc4c(C)c2C)CC3)cc1 [Compound 1-135, 2,8,9-trimethyl-7-(3-(p-tolyl)-7,8-dihydro-1,6-naphthyridin-6(5H)-yl)-4H-pyrimido[1,2-b]pyridazin-4-one]"
102%,633 nM,"Cc1ccc(-c2cnc3c(c2)CN(c2nn4c(=O)cc(C)nc4c(C)c2C)CC3)c(C)c1 [Compound 1-136, 7-(3-(2,4-dimethylphenyl)-7,8-dihydro-1,6-naphthyridin-6(5H)-yl)-2,8,9-trimethyl-4H-pyrimido[1,2-b]pyridazin-4-one]"

# More lines, now with the values behind:
SMILES,Emax at 30 µM,EC50
"Cc1cc(=O)n2nc(N3CCc4ncc(-c5cnc6ccccc6c5)cc4C3)c(C)c(C)c2n1 [Compound 1-120, 2,8,9-trimethyl-7-(3-(quinolin-3-yl)-7,8-dihydro-1,6-naphthyridin-6(5H)-yl)-4H-pyrimido[1,2-b]pyridazin-4-one]",65%,749 nM
"Cc1cc(=O)n2nc(N3CCc4ncc(-c5cncc(C(F)(F)F)c5)cc4C3)c(C)c(C)c2n1 [Compound 1-124, 2,8,9-trimethyl-7-(3-(5-(trifluoromethyl)pyridin-3-yl)-7,8-dihydro-1,6-naphthyridin-6(5H)-yl)-4H-pyrimido[1,2-b]pyridazin-4-one]",84%,3410 nM
"Cc1cc(=O)n2nc(N3CCc4ncc(-c5cnccc5Cl)cc4C3)c(C)c(C)c2n1 [Compound 1-126, 7-(3-(4-chloropyridin-3-yl)-7,8-dihydro-1,6-naphthyridin-6(5H)-yl)-2,8,9-trimethyl-4H-pyrimido[1,2-b]pyridazin-4-one]",88%,758 nM
"Cc1cc(=O)n2nc(N3CCc4ncc(-c5cn6ccnc6cc5C)cc4C3)c(C)c(C)c2n1 [Compound 1-131, 2,8,9-trimethyl-7-(3-(7-methylimidazo[1,2-a]pyridin-6-yl)-7,8-dihydro-1,6-naphthyridin-6(5H)-yl)-4H-pyrimido[1,2-b]pyridazin-4-one]",62%,1760 nM
"Cc1cc(=O)n2nc(N3CCc4ncc(-c5ccccc5C)cc4C3)c(C)c(C)c2n1 [Compound 1-137, 2,8,9-trimethyl-7-(3-(o-tolyl)-7,8-dihydro-1,6-naphthyridin-6(5H)-yl)-4H-pyrimido[1,2-b]pyridazin-4-one]",109%,1730 nM
"Cc1cc(=O)n2nc(N3CCc4ncc(-c5cc(F)ccc5C)cc4C3)c(C)c(C)c2n1 [Compound 1-138, 7-(3-(5-fluoro-2-methylphenyl)-7,8-dihydro-1,6-naphthyridin-6(5H)-yl)-2,8,9-trimethyl-4H-pyrimido[1,2-b]pyridazin-4-one]",87%,190 nM
"COc1cc(C)c(-c2cnc3c(c2)CN(c2nn4c(=O)ccnc4c(C)c2C)CC3)cn1 [Compound 1-139, 7-(3-(6-methoxy-4-methylpyridin-3-yl)-7,8-dihydro-1,6-naphthyridin-6(5H)-yl)-8,9-dimethyl-4H-pyrimido[1,2-b]pyridazin-4-one]",98%,77 nM
"COc1ccncc1-c1cnc2c(c1)CN(c1nn3c(=O)ccnc3c(C)c1C)CC2 [Compound 1-140, 7-(3-(4-methoxypyridin-3-yl)-7,8-dihydro-1,6-naphthyridin-6(5H)-yl)-8,9-dimethyl-4H-pyrimido[1,2-b]pyridazin-4-one]",89%,360 nM
"Cc1c(N2CCc3ncc(-c4ccnnc4)cc3C2)nn2c(=O)ccnc2c1C [Compound 1-141, 8,9-dimethyl-7-(3-(pyridazin-4-yl)-7,8-dihydro-1,6-naphthyridin-6(5H)-yl)-4H-pyrimido[1,2-b]pyridazin-4-one]",96%,410 nM
"Cc1c(N2CCc3ncc(-c4cnccc4C(F)(F)F)cc3C2)nn2c(=O)ccnc2c1C [Compound 1-142, 8,9-dimethyl-7-(3-(4-(trifluoromethyl)pyridin-3-yl)-7,8-dihydro-naphthyridin-6(5H)-yl)-4H-pyrimido[1,2-b]pyridazin-4-one]",53%,371 nM
"Cc1ccc(-c2cnc3c(c2)CN(c2nn4c(=O)ccnc4c(C)c2C)CC3)cc1F [Compound 1-143, 7-(3-(3-fluoro-4-methylphenyl)-7,8-dihydro-1,6-naphthyridin-6(5H)-yl)-8,9-dimethyl-4H-pyrimido[1,2-b]pyridazin-4-one]",102%,416 nM
"Cc1c(N2CCc3ncc(-c4cncc(Cl)c4)cc3C2)nn2c(=O)ccnc2c1C [Compound 1-144, 7-(3-(5-chloropyridin-3-yl)-7,8-dihydro-1,6-naphthyridin-6(5H)-yl)-8,9-dimethyl-4H-pyrimido[1,2-b]pyridazin-4-one]",82%,246 nM
"Cc1c(N2CCc3ncc(-c4cnccc4Cl)cc3C2)nn2c(=O)ccnc2c1C [Compound 1-145, 7-(3-(4-chloropyridin-3-yl)-7,8-dihydro-1,6-naphthyridin-6(5H)-yl)-8,9-dimethyl-4H-pyrimido[1,2-b]pyridazin-4-one]",88%,122 nM
"Cc1c(N2CCc3ncc(-c4cnc(Cl)c(F)c4)cc3C2)nn2c(=O)ccnc2c1C [Compound 1-146, 7-(3-(6-chloro-5-fluoropyridin-3-yl)-7,8-dihydro-1,6-naphthyridin-6(5H)-yl)-8,9-dimethyl-4H-pyrimido[1,2-b]pyridazin-4-one]",86%,399 nM
